Source: patent US12227501B2, “3-amino-2-[2-(acylamino)pyridin-4-yl]-1,5,6,7-tetrahydro-4h-pyrrolo[3,2-c]pyridin-4-one as CSNK1 inhibitors” (Bayer Aktiengesellschaft, priority 2019, dated 2025)

What was measured:
[1] = molecular target: T1, human CSNK1A1 (Homo sapiens (Human), UniProt P48729); assay: CSNK1A1 Assay 2 (ADP-Glo, 1 μM ATP); assay type: biochemical; conditions: substrate biotin-Ahx-KRRRAL-pS-VASLPGL, read-out: CSNK1A1 Assay 2 IC50 [mol/l] (median)
Summary of the method: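 Full-length human CSNK1A1 as an N-terminal GST fusion (baculovirus/insect cells) with biotinylated peptide substrate biotin-Ahx-KRRRAL-pS-VASLPGL and 1 μM ATP, in HEPES pH 7.5 buffer. Compounds were pre-incubated with enzyme (~0.0375 ng/μL) for 15 min at 22 °C. Generated ADP was read by ADP-Glo luminescence as the activity measure.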

[2] = molecular target: T1, human CSNK1A1; assay: CSNK1A1 Assay 1 (ADP-Glo, 1 μM ATP); assay type: biochemical; conditions: read-out: CSNK1A1 Assay 1 IC50 [mol/l] (median)
Experimental: CSNK1A1-inhibitory activity of compounds of the present invention in presence of 1 μM adenosine-tri-phosphate (ATP) was quantified employing the CSNK1A1 assay as described in the following paragraphs. In essence, the enzyme activity is measured by quantification of the adenosine-di-phosphate (ADP), which is generated as a co-product of the enzyme reaction, via the “ADP-Glo™ Kinase Assay” kit from the company Promega. This detection system works as follows: In a first step the ATP not consumed in the kinase reaction is quantitatively converted to cAMP employing an adenylate cyclase (“ADP-Glo-reagent”), then the adenylate cyclase is stopped and the ADP generated in the kinase reaction converted to ATP which generates in a luciferase-based reaction a glow-luminescence signal (“Kinase Detection Reagent”). Recombinant fusion protein of N-terminal Glutathion-S-Transferase (GST) and full-length human CSNK1A1, expressed by baculovirus infected insect cells and purified via Glutathion affinity chromatography, was purchased from Life Technologies (product no. PV4174) and used as enzyme. As substrate for the kinase reaction the biotinylated peptide Btn-Ahx-[…] (C-terminus in amide form) was used which can be purchased e.g. from the company Biosyntan (Berlin-Buch, Germany).
For the assay 50 nl of a 100 fold concentrated solution of the test compound in DMSO was pipetted into a white 1536-well microtiter plate (Greiner Bio-One, Frickenhausen, Germany), 2 μL of a solution of CSNK1A1 in aqueous assay buffer [50 mM HEPES pH 7.5, 10% (v/v) glycerol, 10 mM MgCl2, 50 mM NaCl, 1 mM dithiothreitol, 0.01% (w/v) bovine serum albumin, 0.01% (v/v) Triton X-100] were added and the mixture was incubated for 15 min at 22° C. to allow pre-binding of the test compounds to the enzyme before the start of the kinase reaction. […] The concentration of CSNK1A1 was adjusted depending of the activity of the enzyme lot and was chosen appropriate to have the assay in the linear range, a typical concentration is 0.15 ng/μL. The reaction was stopped by the addition of 2.5 μL of “ADP-Glo-reagent” (1:1.5 fold diluted with water) and the resulting mixture was incubated at 22° C. for 1 h to convert the ATP not consumed in the kinase reaction completely […]. Subsequently 2.5 μL of the “kinase detection reagent” (1.2 fold more concentrated than recommended by the producer) were added, the resulting mixture was incubated at 22° C. for 1 h and then the luminescence measured with a suitable measurement instrument (e.g. Viewlux™ from Perkin-Elmer). The amount of emitted light was taken as a measure for the amount of ADP generated and thereby for the activity of the CSNK1A1.

[3] = substrate Btn-Ahx-SGSEGDSESGEEEG

T1 sequence (P48729 whole entry, the tested form may be a part): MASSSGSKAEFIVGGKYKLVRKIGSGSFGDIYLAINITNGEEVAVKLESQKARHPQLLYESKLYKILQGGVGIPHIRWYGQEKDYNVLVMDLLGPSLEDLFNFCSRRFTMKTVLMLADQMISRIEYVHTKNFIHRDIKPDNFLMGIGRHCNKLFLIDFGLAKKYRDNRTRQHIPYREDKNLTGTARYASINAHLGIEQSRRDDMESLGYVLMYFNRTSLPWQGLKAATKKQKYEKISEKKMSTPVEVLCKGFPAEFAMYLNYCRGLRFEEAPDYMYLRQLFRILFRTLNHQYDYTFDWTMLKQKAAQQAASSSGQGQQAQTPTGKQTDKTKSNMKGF

C[C@H](C(=O)Nc1cc(-c2[nH]c3c(c2Nc2ccccc2)C(=O)N(C)CC3)ccn1)c1ccc(F)cc1 (single isomer, unassigned) [Example 5]
IC50 [1]: 4.45 nM | IC50 ([2]; substrate Btn-Ahx-[…]): 3.62 nM

C[C@@H](C(=O)Nc1cc(-c2[nH]c3c(c2Nc2ccccc2)C(=O)N(C)CC3)ccn1)c1ccc(F)cc1 (single isomer, unassigned) [Example 6]
IC50 [1]: 44 nM | IC50 ([2]; substrate Btn-Ahx-[…]): 33.3 nM

CN1CCc2[nH]c(-c3ccnc(NC(=O)Cc4ccc(F)cc4)c3)c(Nc3ccccc3)c2C1=O [Example 1, N-[4-(3-anilino-5-methyl-4-oxo-4,5,6,7-tetrahydro-1H-pyrrolo[3,2-c]pyridin-2-yl)pyridin-2-yl]-2-(4-fluorophenyl)acetamide]
IC50 [1]: 1.97 nM | IC50 [2, 3]: 2.54 nM

CC(C(=O)Nc1cc(-c2[nH]c3c(c2Nc2ccccc2)C(=O)N(C)CC3)ccn1)c1ccc(F)cc1 (centres unmarked) [Example 4, N-[4-(3-anilino-5-methyl-4-oxo-4,5,6,7-tetrahydro-1H-pyrrolo[3,2-c]pyridin-2-yl)pyridin-2-yl]-2-(4-fluorophenyl)propanamide]
IC50 [1]: 5.49 nM | IC50 [2, 3]: 11.2 nM
